Measurements as given in patent US9562085B2, “Antimicrobial peptide” (priority 2013, dated 2017).
Non-standard residues stand in square brackets, D forms with d. Residues, ends and D or L forms follow the SMILES beside them.

What follows are molecules tested on S. aureus JAR. Conditions: JAR, 2 h.
Assay type: cell-based
Experimental: S. aureus JAR is described in Campoccia et al. (Int. J. Artif. Organs, 2008 September; 31(9):841-7).
For the in vitro killing assay with P10 variants, S. aureus JAR ([…] CFU/ml) were incubated for 2 hours at 37° C. with various concentrations of the peptides in PBS or in PBS/human plasma (1/1, v/v). […] The LC99.9 is the average value of two independent experiments.

| Structure (SMILES) | LC99.9 (μM) (50% plasma) [µM] | LC99.9 (μM) (PBS) [µM] |
| --- | --- | --- |
| CC[C@H](C)[C@H](NC(=O)[C@H](CCCCN)NC(=O)[C@H](CCCCN)NC(=O)[C@H](Cc1ccc(O)cc1)NC(=O)[C@H](CCC(=O)O)NC(=O)[C@H](CCCNC(=N)N)NC(=O)[C@H](C)NC(=O)[C@H](CC(C)C)NC(C)=O)C(=O)N[C@@H](C(=O)N[C@@H](CCC(=O)O)C(=O)N[C@@H](CCCCN)C(=O)N[C@@H](CC(C)C)C(=O)N[C@@H](CCCCN)C(=O)N[C@@H](CCCNC(=N)N)C(=O)N[C@@H](Cc1c[nH]c2ccccc12)C(=O)N[C@@H](CC(C)C)C(=O)N[C@@H](CCCNC(=N)N)C(=O)N[C@@H](CCC(N)=O)C(=O)N[C@H](C(=O)N[C@@H](CC(C)C)C(=O)N[C@@H](CCCNC(=N)N)C(=O)N[C@H](C(=O)N[C@@H](CC(C)C)C(=O)N[C@@H](CCCNC(=N)N)C(N)=O)[C@@H](C)O)C(C)C)C(C)C [Peptide 1301-9, JLAREYKKIvEKLKRWLRQVLRTLRB] (Ac-LAREYKKI[dV]EKLKRWLRQVLRTLR-NH2) | 38.4 | 0.6 |
| CC[C@H](C)[C@H](NC(=O)[C@H](CCCCN)NC(=O)[C@H](CCCCN)NC(=O)[C@H](Cc1ccc(O)cc1)NC(=O)[C@H](CCC(=O)O)NC(=O)[C@H](CCCNC(=N)N)NC(=O)[C@H](C)NC(=O)[C@H](CC(C)C)NC(C)=O)C(=O)N[C@H](C(=O)N[C@H](CCC(=O)O)C(=O)N[C@@H](CCCCN)C(=O)N[C@@H](CC(C)C)C(=O)N[C@@H](CCCCN)C(=O)N[C@@H](CCCNC(=N)N)C(=O)N[C@@H](Cc1c[nH]c2ccccc12)C(=O)N[C@@H](CC(C)C)C(=O)N[C@@H](CCCNC(=N)N)C(=O)N[C@@H](CCC(N)=O)C(=O)N[C@H](C(=O)N[C@@H](CC(C)C)C(=O)N[C@@H](CCCNC(=N)N)C(=O)N[C@H](C(=O)N[C@@H](CC(C)C)C(=O)N[C@@H](CCCNC(=N)N)C(N)=O)[C@@H](C)O)C(C)C)C(C)C [Peptide 1301-10, JLAREYKKIVeKLKRWLRQVLRTLRB] (Ac-LAREYKKIV[dE]KLKRWLRQVLRTLR-NH2) | 38.4 | 0.6 |
| CC[C@H](C)[C@H](NC(=O)[C@H](CCCCN)NC(=O)[C@H](CCCCN)NC(=O)[C@H](Cc1ccc(O)cc1)NC(=O)[C@H](CCC(=O)O)NC(=O)[C@H](CCCNC(=N)N)NC(=O)[C@H](C)NC(=O)[C@H](CC(C)C)NC(C)=O)C(=O)N[C@H](C(=O)N[C@@H](CCC(=O)O)C(=O)N[C@H](CCCCN)C(=O)N[C@@H](CC(C)C)C(=O)N[C@@H](CCCCN)C(=O)N[C@@H](CCCNC(=N)N)C(=O)N[C@@H](Cc1c[nH]c2ccccc12)C(=O)N[C@@H](CC(C)C)C(=O)N[C@@H](CCCNC(=N)N)C(=O)N[C@@H](CCC(N)=O)C(=O)N[C@H](C(=O)N[C@@H](CC(C)C)C(=O)N[C@@H](CCCNC(=N)N)C(=O)N[C@H](C(=O)N[C@@H](CC(C)C)C(=O)N[C@@H](CCCNC(=N)N)C(N)=O)[C@@H](C)O)C(C)C)C(C)C [Peptide 1301-11, JLAREYKKIVEkLKRWLRQVLRTLRB] (Ac-LAREYKKIVE[dK]LKRWLRQVLRTLR-NH2) | 19.2 | 0.4 |
| CC[C@H](C)[C@H](NC(=O)[C@H](CCCCN)NC(=O)[C@H](CCCCN)NC(=O)[C@H](Cc1ccc(O)cc1)NC(=O)[C@H](CCC(=O)O)NC(=O)[C@H](CCCNC(=N)N)NC(=O)[C@H](C)NC(=O)[C@H](CC(C)C)NC(C)=O)C(=O)N[C@H](C(=O)N[C@@H](CCC(=O)O)C(=O)N[C@@H](CCCCN)C(=O)N[C@H](CC(C)C)C(=O)N[C@@H](CCCCN)C(=O)N[C@@H](CCCNC(=N)N)C(=O)N[C@@H](Cc1c[nH]c2ccccc12)C(=O)N[C@@H](CC(C)C)C(=O)N[C@@H](CCCNC(=N)N)C(=O)N[C@@H](CCC(N)=O)C(=O)N[C@H](C(=O)N[C@@H](CC(C)C)C(=O)N[C@@H](CCCNC(=N)N)C(=O)N[C@H](C(=O)N[C@@H](CC(C)C)C(=O)N[C@@H](CCCNC(=N)N)C(N)=O)[C@@H](C)O)C(C)C)C(C)C [Peptide 1301-12, JLAREYKKIVEKlKRWLRQVLRTLRB] (Ac-LAREYKKIVEK[dL]KRWLRQVLRTLR-NH2) | 32.0 | 0.6 |
| CC[C@H](C)[C@H](NC(=O)[C@H](CCCCN)NC(=O)[C@H](CCCCN)NC(=O)[C@H](Cc1ccc(O)cc1)NC(=O)[C@H](CCC(=O)O)NC(=O)[C@H](CCCNC(=N)N)NC(=O)[C@H](C)NC(=O)[C@H](CC(C)C)NC(C)=O)C(=O)N[C@H](C(=O)N[C@@H](CCC(=O)O)C(=O)N[C@@H](CCCCN)C(=O)N[C@@H](CC(C)C)C(=O)N[C@H](CCCCN)C(=O)N[C@@H](CCCNC(=N)N)C(=O)N[C@@H](Cc1c[nH]c2ccccc12)C(=O)N[C@@H](CC(C)C)C(=O)N[C@@H](CCCNC(=N)N)C(=O)N[C@@H](CCC(N)=O)C(=O)N[C@H](C(=O)N[C@@H](CC(C)C)C(=O)N[C@@H](CCCNC(=N)N)C(=O)N[C@H](C(=O)N[C@@H](CC(C)C)C(=O)N[C@@H](CCCNC(=N)N)C(N)=O)[C@@H](C)O)C(C)C)C(C)C [Peptide 1301-13, JLAREYKKIVEKLkRWLRQVLRTLRB] (Ac-LAREYKKIVEKL[dK]RWLRQVLRTLR-NH2) | 38.4 | 0.6 |
| CC[C@H](C)[C@H](NC(=O)[C@H](CCCCN)NC(=O)[C@H](CCCCN)NC(=O)[C@H](Cc1ccc(O)cc1)NC(=O)[C@H](CCC(=O)O)NC(=O)[C@H](CCCNC(=N)N)NC(=O)[C@H](C)NC(=O)[C@H](CC(C)C)NC(C)=O)C(=O)N[C@H](C(=O)N[C@@H](CCC(=O)O)C(=O)N[C@@H](CCCCN)C(=O)N[C@@H](CC(C)C)C(=O)N[C@@H](CCCCN)C(=O)N[C@H](CCCNC(=N)N)C(=O)N[C@@H](Cc1c[nH]c2ccccc12)C(=O)N[C@@H](CC(C)C)C(=O)N[C@@H](CCCNC(=N)N)C(=O)N[C@@H](CCC(N)=O)C(=O)N[C@H](C(=O)N[C@@H](CC(C)C)C(=O)N[C@@H](CCCNC(=N)N)C(=O)N[C@H](C(=O)N[C@@H](CC(C)C)C(=O)N[C@@H](CCCNC(=N)N)C(N)=O)[C@@H](C)O)C(C)C)C(C)C [Peptide 1301-14, JLAREYKKIVEKLKrWLRQVLRTLRB] (Ac-LAREYKKIVEKLK[dR]WLRQVLRTLR-NH2) | 38.4 | 0.6 |
| CC[C@H](C)[C@H](NC(=O)[C@H](CCCCN)NC(=O)[C@H](CCCCN)NC(=O)[C@H](Cc1ccc(O)cc1)NC(=O)[C@H](CCC(=O)O)NC(=O)[C@H](CCCNC(=N)N)NC(=O)[C@H](C)NC(=O)[C@H](CC(C)C)NC(C)=O)C(=O)N[C@H](C(=O)N[C@@H](CCC(=O)O)C(=O)N[C@@H](CCCCN)C(=O)N[C@@H](CC(C)C)C(=O)N[C@@H](CCCCN)C(=O)N[C@@H](CCCNC(=N)N)C(=O)N[C@H](Cc1c[nH]c2ccccc12)C(=O)N[C@@H](CC(C)C)C(=O)N[C@@H](CCCNC(=N)N)C(=O)N[C@@H](CCC(N)=O)C(=O)N[C@H](C(=O)N[C@@H](CC(C)C)C(=O)N[C@@H](CCCNC(=N)N)C(=O)N[C@H](C(=O)N[C@@H](CC(C)C)C(=O)N[C@@H](CCCNC(=N)N)C(N)=O)[C@@H](C)O)C(C)C)C(C)C [Peptide 1301-15, JLAREYKKIVEKLKRwLRQVLRTLRB] (Ac-LAREYKKIVEKLKR[dW]LRQVLRTLR-NH2) | 38.4 | 0.4 |
